Consider two molecules from US9155760B2, “Method of prophylaxis of bacterial vaginosis” (STARPHARMA PTY LIMITED, priority 2011, dated 2015).

For one assay, the system named is Bacteroides ovatus 3503. Nature of the assay: Agar dilution MIC assay (anaerobes). It counts as cell-based. To be noted: Micromyx Number 3503, 35° C., 48 hours, anaerobic.
The test system of a further assay is Lactobacillus jensenii. Kind of assay: Agar dilution MIC assay (anaerobes). It counts as cell-based. The following applies: Micromyx Number 4149, 35° C., 48 hours, anaerobic.
For the next assay, the system named is Lactobacillus crispatus. Kind of assay: Agar dilution MIC assay (anaerobes). It counts as cell-based. The following applies: Micromyx Number 4147, 35° C., 48 hours, anaerobic.
The subject of assay [1] is Prevotella melaninogenica. Nature of the assay: Agar dilution MIC assay (anaerobes). It counts as cell-based. To be noted: Micromyx Number 3005, 35° C., 48 hours, anaerobic.
In another assay the test system is Lactobacillus gasseri. Nature of the assay: Agar dilution MIC assay (anaerobes). It counts as cell-based. The following applies: Micromyx Number 4148, 35° C., 48 hours, anaerobic.
Another assay relates to Fusobacterium nucleatum. Kind of assay: Agar dilution MIC assay (anaerobes). It counts as cell-based. The following applies: Micromyx Number 1269, 35° C., 48 hours, anaerobic.
Assay [2] relates to Lactobacillus acidophilus. Kind of assay: Agar dilution MIC assay (anaerobes). The following applies: Micromyx Number 0681, 35° C., 48 hours, anaerobic. It counts as cell-based.
A further assay relates to B. ovatus 3508. Kind of assay: Agar dilution MIC assay (anaerobes). The following applies: Micromyx Number 3508, 35° C., 48 hours, anaerobic. It counts as cell-based, Bacteroides ovatus.
The next assay concerns Lactobacillus casei. Kind of assay: Agar dilution MIC assay (anaerobes). It counts as cell-based. The following applies: Micromyx Number 1722, 35° C., 48 hours, anaerobic.
The subject of another assay is Porphyromonas levii. Nature of the assay: Agar dilution MIC assay (anaerobes). It counts as cell-based. The following applies: Micromyx Number 3003, 35° C., 48 hours, anaerobic.
Another assay has as its system Lactobacillus plantarum. Kind of assay: Agar dilution MIC assay (anaerobes). The following applies: Micromyx Number 2791, 35° C., 48 hours, anaerobic. It counts as cell-based.
The test system of assay [3] is Bacteroides fragilis 0123 (ATCC 25285). Nature of the assay: Agar dilution MIC assay (anaerobes), quality control organism. It counts as cell-based. To be noted: 48 hours, anaerobic.
The subject of another assay is Bacteroides ureolyticus. Kind of assay: Agar dilution MIC assay (anaerobes). It counts as cell-based. To be noted: Micromyx Number 4150, 35° C., 48 hours, anaerobic.
Assay [4] relates to Bacteroides fragilis 3374. Kind of assay: Agar dilution MIC assay (anaerobes). It counts as cell-based. The following applies: Micromyx Number 3374, 35° C., 48 hours, anaerobic.
A further assay concerns Prevotella bivia. Kind of assay: Agar dilution MIC assay (anaerobes). It counts as cell-based. To be noted: Micromyx Number 3447, 35° C., 48 hours, anaerobic.
The subject of a further assay is Prevotella intermedia. Kind of assay: Agar dilution MIC assay (anaerobes). It counts as cell-based. The following applies: Micromyx Number 3002, 35° C., 48 hours, anaerobic.
The test system of another assay is Anaerococcus prevotii. Kind of assay: Agar dilution MIC assay (anaerobes). It counts as cell-based. The following applies: Micromyx Number 4151, 35° C., 48 hours, anaerobic.
A further assay has as its system Mobiluncus. curtisii. Kind of assay: Agar dilution MIC assay (anaerobes). It counts as cell-based. The following applies: Micromyx Number 4145, 35° C., 48 hours, anaerobic.
Assay [5] relates to Peptostreptococcus anaerobius. Nature of the assay: Agar dilution MIC assay (anaerobes). It counts as cell-based. To be noted: Micromyx Number 3526, 35° C., 48 hours, anaerobic.
For another assay, the system named is Gardnerella vaginalis. Kind of assay: Agar dilution MIC assay (anaerobes). It counts as cell-based. To be noted: Micromyx Number 4153, 35° C., 48 hours, anaerobic.
A further assay relates to Mobiluncus mulieris. Kind of assay: Agar dilution MIC assay (anaerobes). The following applies: Micromyx Number 4146, 35° C., 48 hours, anaerobic. It counts as cell-based.
For the next assay, the system named is Anaerococcus tetradius. Kind of assay: Agar dilution MIC assay (anaerobes). It counts as cell-based. To be noted: Micromyx Number 4152, 35° C., 48 hours, anaerobic.
Assay [6] deals with Porphyromonas asaccharolytica. Nature of the assay: Agar dilution MIC assay (anaerobes). It counts as cell-based. The following applies: Micromyx Number 3004, 35° C., 48 hours, anaerobic.
[7] abbreviates: Bacteroides ovatus, read-out: MIC.

Structures are written as SMILES. Converted amounts (≈) assume the structure as drawn. Read-outs that look alike come from different tables or passages of the source. Some results are limits rather than exact numbers.

`C[C@@H](O)[C@H]1C(=O)N2C(C(=O)O)=C(SCCN=CN)C[C@H]12` [Imipenem, reference compound]: the MIC in the assay on Bacteroides ovatus 3503 (setting [7]) is 0.25 µg/mL (≈ 0.835 µM); with Lactobacillus jensenii (Lactobacillus jensenii, read-out: MIC), 0.25 µg/mL (≈ 0.835 µM); in the assay with Lactobacillus crispatus (Lactobacillus crispatus, read-out: MIC) it was 0.12 µg/mL (≈ 0.401 µM); in assay [1] (Prevotella melaninogenica, read-out: MIC), no more than 0.03 µg/mL; in the assay with Lactobacillus gasseri (Lactobacillus gasseri, read-out: MIC), 0.25 µg/mL (≈ 0.835 µM); with Fusobacterium nucleatum (Fusobacterium nucleatum, read-out: MIC) it was no more than 0.03 µg/mL. Moreover, the MIC is 0.12 µg/mL (≈ 0.401 µM) in [2] (Lactobacillus acidophilus, read-out: MIC); no more than 0.03 µg/mL in the assay on B. ovatus 3508 (setting [7]); 0.5 µg/mL (≈ 1.67 µM) with Lactobacillus casei (Lacticaseibacillus casei, read-out: MIC); 0.06 µg/mL (≈ 0.2 µM) in the assay with Porphyromonas levii (Porphyromonas levii, read-out: MIC); 2 µg/mL (≈ 6.68 µM) with Lactobacillus plantarum (Lactiplantibacillus plantarum, read-out: MIC); 0.12 µg/mL (≈ 0.401 µM) in assay [3] (Bacteroides fragilis, ATCC25285, Micromyx Number 0123, 35° C., read-out: MIC). In addition, the MIC in the assay on Bacteroides ureolyticus (Campylobacter ureolyticus, read-out: MIC) was 0.25 µg/mL (≈ 0.835 µM); in [4] (Bacteroides fragilis, read-out: MIC), 2 µg/mL (≈ 6.68 µM); in the assay on Prevotella bivia (Prevotella bivia, read-out: MIC), no more than 0.03 µg/mL; with Prevotella intermedia (Prevotella intermedia, read-out: MIC), no more than 0.03 µg/mL; in the assay on Anaerococcus prevotii (Anaerococcus prevotii, read-out: MIC) it was 0.06 µg/mL (≈ 0.2 µM); in the assay with Mobiluncus. curtisii (Mobiluncus curtisii, read-out: MIC), no more than 0.03 µg/mL. Moreover, the MIC in [5] (Peptostreptococcus anaerobius, read-out: MIC) was no more than 0.03 µg/mL; in the assay with Gardnerella vaginalis (Gardnerella vaginalis, read-out: MIC), 0.12 µg/mL (≈ 0.401 µM); with Mobiluncus mulieris (Mobiluncus mulieris, read-out: MIC), no more than 0.03 µg/mL; in the assay on Anaerococcus tetradius (Anaerococcus tetradius, read-out: MIC), no more than 0.03 µg/mL; in [6] (Porphyromonas asaccharolytica, read-out: MIC), no more than 0.03 µg/mL.

As to `CC(=O)COc1cc(S(=O)(=O)O)cc2cc(S(=O)(=O)O)ccc12` [SPL7013], the MIC with Bacteroides ovatus 3503 is greater than 30000 µg/mL; in the assay on Lactobacillus jensenii, greater than 30000 µg/mL; against Lactobacillus crispatus, 10000 µg/mL (≈ 27700 µM); in [1], greater than 30000 µg/mL; with Lactobacillus gasseri, greater than 30000 µg/mL; in the assay with Fusobacterium nucleatum it was greater than 30000 µg/mL. The MIC in [2] was greater than 30000 µg/mL; with B. ovatus 3508, 30000 µg/mL (≈ 83200 µM); in the assay on Lactobacillus casei, greater than 30000 µg/mL; against Porphyromonas levii, greater than 30000 µg/mL; with Lactobacillus plantarum, greater than 30000 µg/mL; in [3] (Micromyx Number 0123, 35° C.), greater than 30000 µg/mL. Moreover, the MIC against Bacteroides ureolyticus was greater than 30000 µg/mL; in assay [4], greater than 30000 µg/mL; with Prevotella bivia it was 30000 µg/mL (≈ 83200 µM); in the assay with Prevotella intermedia, greater than 30000 µg/mL; in the assay on Anaerococcus prevotii it was greater than 30000 µg/mL; against Mobiluncus. curtisii, greater than 30000 µg/mL. For the same molecule, the MIC was greater than 30000 µg/mL in [5]; 5000 µg/mL (≈ 13900 µM) against Gardnerella vaginalis; greater than 30000 µg/mL in the assay with Mobiluncus mulieris; greater than 30000 µg/mL against Anaerococcus tetradius; greater than 30000 µg/mL in [6].
